Tests used:
[1] = tested on: GLXMAW (Soybean, Williams); experiment: Preemergence herbicidal evaluation; type: in vivo, Glycine max, (L.) Merr. cv Williams; conditions: rated 4-5 weeks after treatment; for GLXMAW rating: preemergence, 0-9 scale
Procedure, shortened: (§1)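 Scores use a 0–9 visual scale covering stand, vigor, malformation, size and chlorosis relative to controls, rated four to five weeks after treatment. Before emergence, soil-planted seeds were sprayed with compound in aqueous acetone at roughly 0.0156–0.500 kg/ha and held in the greenhouse.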

[2] = tested on: TRZAWR (Wheat, Winter, cv Riband); experiment: Preemergence herbicidal evaluation; type: in vivo, Triticum aestivum; conditions: rated 4-5 weeks after treatment; for TRZAWR rating: preemergence, 0-9 scale
Procedure, shortened: as §1

CASOB (Sicklepod) = experiment: Postemergence herbicidal evaluation; type: in vivo, Cassia obtusifolia; conditions: for CASOB herbicidal rating: postemergence
Procedure, shortened: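 First, seedlings were raised for around two weeks. Next, test material in 50/50 acetone/water containing 0.5% TWEEN 20 was sprayed through a nozzle at 40 psi, equivalent to about 0.0156–0.500 kg/ha. Finally, after 4–5 weeks in the greenhouse, plants were rated 0–9.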

MOOVA (Monochoria) = experiment: Postemergence weed control under flooded paddy conditions; type: in vivo, Monochoria vaginalis; conditions: postemergence weeds
Procedure, shortened: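 Herbicidal effect is judged by eye on a 0–9 scale versus control, 3–4 weeks after dosing. Dosing is into flood water kept 1.5–3 cm over the soil, at about 0.0313–0.500 kg/ha in aqueous/acetone 50/50 v/v, on 3–5 cm weeds and 1.5–2.5-leaf rice seedlings.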

[3] = tested on: SAGPY (Arrowhead (Pygmaea)); experiment: Preemergence weed control under flooded paddy conditions; type: in vivo, Sagittaria pygmaea; conditions: rated 3-4 weeks after treatment
Procedure, shortened: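 Seeds or propagules sown in silt loam kept flooded 1.5-3 cm; compounds in 50/50 acetone/water pipetted into flood water at about 0.0313 to 0.500 kg/ha. Greenhouse; visual 0-9 rating versus untreated control 3-4 weeks after treatment.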

ORYSAT (Rice, Tebonnet) = experiment: Preemergence herbicidal evaluation; type: in vivo, Oryza sativa, (L.) Tebonnet; conditions: rated 4-5 weeks after treatment; for ORYSAT rating: preemergence, 0-9 scale
Procedure, shortened: as §1

CC(C)OC(=O)CC1SC(=Nc2cc(-n3c(=O)cc(C(F)(F)F)n(C)c3=O)c(F)cc2Cl)N(C)C1=O (stereo not shown) [Compound 89, Isopropyl 2-{{2-chloro-5-[3,6-dihydro-3-methyl-2,6-dioxo-4-(trifluoromethyl)-1(2H)-pyrimidinyl]-4-fluorophenyl}imino}-3-methyl-4-oxo-5-thiazolidineacetate]
GLXMAW rating ([1]; 0.0156 kg/ha): 0.0 | GLXMAW rating ([1]; 0.0313 kg/ha): 0.0 | GLXMAW rating ([1]; 0.0625 kg/ha): 1.0 | GLXMAW rating ([1]; 0.1250 kg/ha): 2.0 | GLXMAW rating ([1]; 0.2500 kg/ha): 8.5 | GLXMAW rating ([1]; 0.5000 kg/ha): 9.0 | TRZAWR rating ([2]; 0.0156 kg/ha): 0.0 | TRZAWR rating ([2]; 0.0313 kg/ha): 0.0 | TRZAWR rating ([2]; 0.0625 kg/ha): 0.5 | TRZAWR rating ([2]; 0.1250 kg/ha): 2.0 | TRZAWR rating ([2]; 0.2500 kg/ha): 6.5 | TRZAWR rating ([2]; 0.5000 kg/ha): 9.0 | CASOB herbicidal rating (CASOB (Sicklepod); rate 0.0158 kg/ha): 0.0 | CASOB herbicidal rating (CASOB (Sicklepod); rate 0.0313 kg/ha): 6.0 | CASOB herbicidal rating (CASOB (Sicklepod); rate 0.0625 kg/ha): 9.0 | CASOB herbicidal rating (CASOB (Sicklepod); rate 0.1250 kg/ha): 9.0 | Herbicidal rating MOOVA (MOOVA (Monochoria); Rate 0.0313 kg/ha, rated 3 to 4 weeks after treatment): 9.0 | Herbicidal rating MOOVA (MOOVA (Monochoria); Rate 0.0625 kg/ha, rated 3 to 4 weeks after treatment): 9.0 | Herbicidal rating MOOVA (MOOVA (Monochoria); Rate 0.1250 kg/ha, rated 3 to 4 weeks after treatment): 9.0 | Herbicidal rating MOOVA (MOOVA (Monochoria); Rate 0.2500 kg/ha, rated 3 to 4 weeks after treatment): 9.0 | SAGPY herbicidal effect rating ([3]; 0.0313 kg/ha): 4.0 | SAGPY herbicidal effect rating ([3]; 0.0625 kg/ha): 5.0 | SAGPY herbicidal effect rating ([3]; 0.1250 kg/ha): 9.0 | SAGPY herbicidal effect rating ([3]; 0.2500 kg/ha): 9.0 | ORYSAT rating (ORYSAT (Rice, Tebonnet); 0.0156 kg/ha): 0.0 | ORYSAT rating (ORYSAT (Rice, Tebonnet); 0.0313 kg/ha): 0.5 | ORYSAT rating (ORYSAT (Rice, Tebonnet); 0.0625 kg/ha): 2.0 | ORYSAT rating (ORYSAT (Rice, Tebonnet); 0.1250 kg/ha): 4.5 | ORYSAT rating (ORYSAT (Rice, Tebonnet); 0.2500 kg/ha): 8.0 | ORYSAT rating (ORYSAT (Rice, Tebonnet); 0.5000 kg/ha): 9.0

CCOC(=O)CN1C(=O)C(CC(=O)OC)S/C1=N/c1cc(-n2c(=O)cc(C(F)(F)F)n(C)c2=O)c(F)cc1Cl (stereo not shown) [Compound 54, 2-{{2-Chloro-5-[3,6-dihydro-3-methyl-2,6-dioxo-4-(trifluoromethyl)-1(2H)-pyrimidinyl]-4-fluorophenyl}imino}-4-oxo-3,5-thiazolidinediacetic acid, 3-ethyl methyl ester]
Preemergence herbicidal rating GLXMAW ([1]; rate 0.0156 kg/ha): 0.0 | Preemergence herbicidal rating GLXMAW ([1]; rate 0.0313 kg/ha): 0.5 | Preemergence herbicidal rating GLXMAW ([1]; rate 0.0625 kg/ha): 1.5 | Preemergence herbicidal rating GLXMAW ([1]; rate 0.1250 kg/ha): 3.0 | Preemergence herbicidal rating GLXMAW ([1]; rate 0.2500 kg/ha): 7.5 | Preemergence herbicidal rating GLXMAW ([1]; rate 0.5000 kg/ha): 9.0 | Preemergence herbicidal rating TRZAWR ([2]; rate 0.0156 kg/ha): 0.0 | Preemergence herbicidal rating TRZAWR ([2]; rate 0.0313 kg/ha): 0.0 | Preemergence herbicidal rating TRZAWR ([2]; rate 0.0625 kg/ha): 0.0 | Preemergence herbicidal rating TRZAWR ([2]; rate 0.1250 kg/ha): 1.0 | Preemergence herbicidal rating TRZAWR ([2]; rate 0.2500 kg/ha): 3.0 | Postemergence herbicidal rating CASOB (CASOB (Sicklepod); Rate 0.0158 kg/ha): 5.0 | Postemergence herbicidal rating CASOB (CASOB (Sicklepod); Rate 0.0315 kg/ha): 6.0 | Postemergence herbicidal rating CASOB (CASOB (Sicklepod); Rate 0.0630 kg/ha): 9.0 | Herbicidal rating MOOVA (MOOVA (Monochoria); rate 0.0313 kg/ha, 3-4 weeks after treatment): 0.0 | Herbicidal rating MOOVA (MOOVA (Monochoria); rate 0.0625 kg/ha, 3-4 weeks after treatment): 0.0 | Herbicidal rating MOOVA (MOOVA (Monochoria); rate 0.1250 kg/ha, 3-4 weeks after treatment): 6.0 | Herbicidal rating MOOVA (MOOVA (Monochoria); rate 0.2500 kg/ha, 3-4 weeks after treatment): 6.0 | Herbicidal rating SAGPY ([3]; 0.0313 kg/ha): 0.0 | Herbicidal rating SAGPY ([3]; 0.0625 kg/ha): 0.0 | Herbicidal rating SAGPY ([3]; 0.1250 kg/ha): 0.0 | Herbicidal rating SAGPY ([3]; 0.2500 kg/ha): 2.0 | Preemergence herbicidal rating ORYSAT (ORYSAT (Rice, Tebonnet); rate 0.0156 kg/ha): 0.0 | Preemergence herbicidal rating ORYSAT (ORYSAT (Rice, Tebonnet); rate 0.0313 kg/ha): 0.0 | Preemergence herbicidal rating ORYSAT (ORYSAT (Rice, Tebonnet); rate 0.0625 kg/ha): 1.0 | Preemergence herbicidal rating ORYSAT (ORYSAT (Rice, Tebonnet); rate 0.1250 kg/ha): 2.0 | Preemergence herbicidal rating ORYSAT (ORYSAT (Rice, Tebonnet); rate 0.2500 kg/ha): 4.5 | Preemergence herbicidal rating ORYSAT (ORYSAT (Rice, Tebonnet); rate 0.5000 kg/ha): 6.0

Reference: patent publication US20020137929A1, “1 - (3-heterocyclylphenyl) isothiourea, -isourea, -guanidine and -amidine herbicidal agents” (Intellectual Property Department, BASF Aktiengesellschaft, priority 1998, published 2002)
